{"source": "paper PMC10525135", "about": "“Computationally Designed AMPs with Antibacterial and Antibiofilm Activity against MDR Acinetobacter baumannii” (Antibiotics, 2023)", "key": {"[1]": {"tested_on": "A. baumannii AB5075", "experiment": "Time-kill kinetics", "assay_type": "cell-based, Acinetobacter baumannii", "details": "AB5075, highest concentration (5 µg/mL)", "description": "(§1) At the various timepoints, samples were serially diluted, and CFUs were counted by spot plating on a Tryptic Soy agar."}, "[2]": {"tested_on": "A. baumannii BAA-1710", "experiment": "Time-kill kinetics", "assay_type": "cell-based, Acinetobacter baumannii", "details": "BAA-1710, all tested concentrations (1×, 5×, 10× MIC; MIC = 0.5 µg/mL)", "description": "as §1"}, "[3]": {"tested_on": "A. baumannii BAA-1710 and -1794 biofilm", "experiment": "Antibiofilm screening at 100 µg/mL (crystal violet)", "assay_type": "cell-based, Acinetobacter baumannii", "details": "n = 3", "description": "As the first step, antibacterial screening (n = 3) was performed on MDR strains of A. baumannii listed in Table 5, with each peptide at a concentration of 100 μg/mL in MHB. […] Growth was measured spectrophotometrically at OD600 nm at 20–24 h, following the CLSI protocol for A. baumannii incubation for MIC [99]. Similarly, biofilm formation was first established for tested A. baumannii strains using our crystal violet-staining protocol described below. Then, antibiofilm screening (n = 3) of each peptide against biofilm formation of A. baumannii was determined at 100 μg/mL. Peptides that were active in this screen were then analyzed in more detail as described below. Positive controls were used, such as LL-37 and polymyxin B [18, 66, 67]. Samples containing only the medium were considered as the sterility control whereas samples containing only bacteria served as the growth control.\nThe MBIC assay measures the lowest concentration of a compound that inhibits the biofilm formation of an organism. […] After the incubation of bacteria with AMPs, OD600 nm was measured for approximate bacterial growth. […] After that, 200 µL of 33% glacial acetic acid was added to resolubilize the stain, and biofilm mass was measured by a spectrophotometric reading at OD590. […]"}, "[4]": {"tested_on": "A. baumannii BAA-1800 biofilm", "details": "A. baumannii BAA-1800, TSB, 24 h 37 °C", "description": "The MBIC assay measures the lowest concentration of a compound that inhibits the biofilm formation of an organism. A series of decreasing peptide concentrations starting from 64 μg/mL to 0.25 μg/mL (100 µL) were incubated with 1 × 10^5 CFU of A. baumannii in 100 µL of Tryptic Soy broth (TSB) in a polystyrene 96-well plate (Falcon 353072, Corning, NY, USA) for 24 h at 37 °C to assess biofilm formation inhibition, as described previously with minor modifications. After the incubation of bacteria with AMPs, OD600 nm was measured for approximate bacterial growth. Media were carefully removed, and wells (n = 3) were rinsed with tap water. Plates were heat-fixed at 70 °C for 1 h, and 200 µL of 0.1% crystal violet diluted in deionized water were added to wells and allowed to incubate for 15 min. Excess stain was rinsed off with tap water, and the plates were air-dried. After that, 200 µL of 33% glacial acetic acid was added to resolubilize the stain, and biofilm mass was measured by a spectrophotometric reading at OD590. Bacteria alone (no treatment) served as the 100% biofilm control, and media alone and media with a peptide/drug were used as the sterility control and the 0% biofilm control."}, "[5]": {"tested_on": "AB5075 pre-formed (24 h) biofilm", "assay_type": "cell-based, Acinetobacter baumannii", "description": "The MBEC assay measures the lowest concentration of an antimicrobial agent that can eradicate established biofilms. Using the MBEC assay in the Biofilm Inoculator 96-well base (Innovotech Cat #1911, Edmonton, AB, Canada) and following the manufacturer’s protocol, 150 µL (n = 6) of 1 × 10^6 CFU/mL of AB5075 in TSB was incubated for 24 h at 37 °C at 110 rpm for biofilm formation. The lid containing pegs was rinsed with sterile PBS for 5 min, and then the lid was placed in a peptide challenge polypropylene 96-well plate containing a decreasing series of drug concentrations and incubated for 24 h at 37 °C at 110 rpm. Pegs were washed three times with tap water, heat-fixed for 70 °C for 1 h, and stained with 0.1% crystal violet for 15 min. Excess stain was rinsed off with tap water and allowed to dry. Stained pegs were resolubilized with 200 µL of 33% glacial acetic acid. OD590 was obtained to measure the remaining biofilm. Pegs with only bacteria served as the growth control and 100% biofilm control. Media alone and media with a peptide/drug served as the sterility controls. […] The experiment was performed twice."}, "[6]": {"tested_on": "AB5075", "experiment": "Membrane depolarization assay (DiSC3(5))", "assay_type": "cell-based, Acinetobacter baumannii", "details": "50 µg/mL, DiSC3(5) fluorescence, 20 min, versus untreated bacteria", "description": "A membrane depolarization assay was performed using a cationic dye, 3,3′-dipropylthiadicarbocyanine iodide (DiSC3(5)) as we previously described, with some modifications. Briefly, AB5075 was grown overnight on a Tryptic Soy agar, and opaque colonies were emulsified in DPBS (Gibco) until the 0.5 McFarland standard was achieved (~1 × 10^8 CFU/mL). A bacterial suspension of 4 × 10^7 CFU/mL was prepared and washed twice with DPBS, and then bacteria were resuspended in DPBS containing 10 µg/mL of DiSC3(5). An aliquot of 100 µL of the bacteria DiSC3(5) suspension was added to a black 96-well flat plate (Ultracruz Polypropylene Microplate sc-204462, Santacruz, CA, USA). The plate was incubated at room temperature in BioTek Cytation 5 and monitored until fluorescence stopped decreasing. An aliquot of 100 µL of peptide or DPBS (the untreated control) was added to each well (a final concentration of peptide of 50 µg/mL) and the plate was immediately returned to the plate reader. […] Readings were taken every 15 s for 20 min (excitation = 622 nm; emission = 670 nm). The experiment was repeated twice."}, "[7]": {"tested_on": "AB5075", "experiment": "Membrane permeabilization assay (ethidium bromide uptake)", "assay_type": "cell-based, Acinetobacter baumannii", "details": "50 µg/mL, 10 µM ethidium bromide, 20 min at 37 °C, versus untreated control", "description": "Membrane permeabilization was assessed using ethidium bromide uptake after peptide exposure, as we have previously described. AB5075 was grown on a Tryptic Soy agar for 18–24 h. Colonies presenting opaque morphology were picked and resuspended in DPBS (Gibco, Waltham, MA, USA) to achieve 0.1 OD600. A total of 180 µL of the bacterial suspension was mixed with a final peptide concentration of 50 µg/mL and a final ethidium bromide concentration of 10 µM in a black 96-well flat plate (Ultracruz Polypropylene Microplate sc-204462, Santacruz, CA, USA). The plate was transferred immediately to BioTek Cytation 5 (Santa Clara, CA, USA) for fluorescence intensity readings every 2 min for 20 min at 37 °C (excitation: 535 nm; emission: 590 nm). The relative fluorescence units (RFUs) were calculated. Tested samples minus no peptide control that has EtBr. LL-37 and polymyxin B were used as the controls in this experiment. The experiment was run in three replicates twice. Student’s t-test was used to determine statistical significance."}, "[8]": {"tested_on": "Galleria mellonella", "experiment": "Waxworm toxicity testing", "details": "10 µg in 10 µL PBS injected per worm, 10 worms per group, 72 h", "quoted_text": "Galleria mellonella were obtained from Vanderhorst Wholesale (Saint Mary’s, OH, USA), and 10 worms with equal weights between 200 to 300 mg were assigned to each group. […] The experiment was performed twice, and the results were analyzed by the Mantel–Cox test."}}, "note": "Residues, ends and D or L forms follow the SMILES beside them.", "data": [{"compound": "CC[C@H](C)CCCCC(=O)N[C@@H](CCN)C(=O)N[C@H](C(=O)N[C@@H](CCN)C(=O)N[C@H]1CCNC(=O)[C@H]([C@@H](C)O)NC(=O)[C@H](CCN)NC(=O)[C@H](CCN)NC(=O)[C@H](CC(C)C)NC(=O)[C@@H](Cc2ccccc2)NC(=O)[C@H](CCN)NC1=O)[C@@H](C)O", "note": "[Polymyxin B] (HELM PEPTIDE1{[CC[C@H](C)CCCCC(=O)[*:2]].[Dab].T.[Dab].[Dab].[Dab].[dF].L.[Dab].[Dab].T}$PEPTIDE1,PEPTIDE1,5:R3-11:R2$$$V2.0; N-terminus assumed; bridges inferred)", "values": [{"measurement": "Time to complete killing", "setting": "[1]", "value": "≤ 3", "unit": "h"}, {"measurement": "Killing within 3 h", "setting": "[2]", "value": "failed to kill"}, {"measurement": "Biofilm inhibition in screen", "setting": "[3]", "value": "complete biofilm inhibition"}, {"measurement": "MBEC50", "setting": "[4]; crystal violet", "value": 2, "unit": "µg/mL"}, {"measurement": "MBIC100", "setting": "[4]; polystyrene plate, crystal violet OD590, n = 3", "value": 1, "unit": "µg/mL"}, {"measurement": "Concentration giving complete eradication of bacteria (reduction in CFU) in pre-formed biofilms", "setting": "[5]; AB5075 pre-formed biofilm, CFU determination", "value": 2, "unit": "µg/mL"}, {"measurement": "MBEC", "setting": "[5]; MBEC100, AB5075 24 h pre-formed biofilm on pegs, 24 h challenge, crystal violet OD590, n = 6", "value": "* 2 µg/mL"}, {"measurement": "crystal violet-stained biofilm mass maintained", "setting": "[5]; treated with between 2 and 16 µg/mL, AB5075 pre-formed biofilm", "value": "up to 40%"}, {"measurement": "Membrane depolarization", "setting": "[6]", "value": "significant membrane depolarization effect"}, {"measurement": "Membrane permeabilization", "setting": "[7]", "value": "disrupted bacterial membranes"}, {"measurement": "Survival of worms", "setting": "[8]", "value": 80, "unit": "%"}]}]}
